The record followed here is patent US10759781B2, “Substituted guanidine derivatives” (UBE INDUSTRIES, LTD., priority 2015, dated 2020).

Where a name gives a salt, the structure may show the parent alone.

One assay has as its target T1, Human VAP-1 enzyme (Homo sapiens, UniProt Q16853).
T1 construct: purchased R&D Systems, Inc
T1 sequence (Q16853 1-763): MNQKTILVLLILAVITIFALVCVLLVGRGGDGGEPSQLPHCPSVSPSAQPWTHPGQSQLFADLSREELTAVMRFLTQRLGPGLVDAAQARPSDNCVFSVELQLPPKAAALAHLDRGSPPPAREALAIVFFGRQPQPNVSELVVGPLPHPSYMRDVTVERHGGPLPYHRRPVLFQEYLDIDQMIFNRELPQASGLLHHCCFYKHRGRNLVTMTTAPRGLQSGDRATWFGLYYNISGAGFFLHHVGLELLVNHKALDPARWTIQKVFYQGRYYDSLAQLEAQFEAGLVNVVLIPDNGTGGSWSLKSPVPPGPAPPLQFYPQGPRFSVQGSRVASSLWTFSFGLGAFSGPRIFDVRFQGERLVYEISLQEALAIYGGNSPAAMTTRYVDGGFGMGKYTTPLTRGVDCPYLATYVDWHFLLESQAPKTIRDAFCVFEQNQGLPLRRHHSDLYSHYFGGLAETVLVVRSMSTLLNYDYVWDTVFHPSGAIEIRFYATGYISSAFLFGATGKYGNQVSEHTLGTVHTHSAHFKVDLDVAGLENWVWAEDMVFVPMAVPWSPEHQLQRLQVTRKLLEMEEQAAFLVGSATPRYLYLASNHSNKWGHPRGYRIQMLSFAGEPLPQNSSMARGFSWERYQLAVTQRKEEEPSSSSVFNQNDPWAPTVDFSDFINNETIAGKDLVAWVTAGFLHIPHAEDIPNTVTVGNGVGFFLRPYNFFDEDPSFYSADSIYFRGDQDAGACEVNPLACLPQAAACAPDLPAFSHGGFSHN
Briefly: Human VAP-1 enzyme inhibition test. Format: biochemical. The note with it: 1 h; compound 30 nM; 14C-benzylamine 100 μM; read-out: inhibition ratio (human VAP-1 enzyme). As for the experimental part: Human VAP-1 enzyme inhibition test
This test was conducted by modifying the method of P. H. Yu et al. (Diabetologia 40 1243 (1997)). Human VAP-1 enzyme (R&D Systems, Inc.) was pre-incubated in a 96-well plate with the compound dissolved in dimethylsulfoxide at room temperature for 20 minutes. Next, in a solution to the final volume of 200 μL, the enzyme reaction solution was incubated with ^14C-benzylamine (final concentration 100 μM) at 37° C. for 1 hour. The reaction was terminated by the addition of 100 μL of 2 M citric acid solution to the reaction solution. The oxidative product was extracted using a toluene/ethyl acetate mixture and the radioactivity was measured with a liquid scintillation counter. The inhibition ratio of the compound was calculated using the following equation. Inhibition ratio={1−[VAP-1 enzyme activity after treatment with the compound]/[VAP-1 enzyme activity in the presence of dimethylsulfoxide alone without the compound]}×100
`N=C(N)NC(=O)OCc1cccc(-c2cnc(N3CC(=NOC4CN(CCF)C4)C3)nc2)c1F` [Example 148, 2-Fluoro-3-{2-[3-({[1-(2-fluoroethyl)azetidin-3-yl]oxy}imino)azetidin-1-yl]pyrimidin-5-yl}benzyl carbamimidoylcarbamate]: the inhibition at 0.03 µM was at least 50%.
On the same count and under the same terms, the value for `CCOC(=O)CCCON=C1CCN(c2ncc(-c3cccc(COC(=O)NC(=N)N)c3F)cn2)CC1` [Example 152, Ethyl 4-[({1-[5-(3-{[(carbamimidoylcarbamoyl)oxy]methyl}-2-fluorophenyl)pyrimidin-2-yl]piperidin-4-ylidene}amino)oxy]butanoate] was at least 50%; that for `CN(CCON=C1CCN(c2ncc(-c3cccc(COC(=O)NC(=N)N)c3F)cn2)CC1)S(C)(=O)=O` [Example 157, 2-Fluoro-3-[2-(4-{[2-(N-methylmethylsulfonamido)ethoxy]imino}piperidin-1-yl)pyrimidin-5-yl]benzyl carbamimidoylcarbamate hydrochloride] was at least 50%.
For the compound `CNCCON=C1CCN(c2ncc(-c3cccc(COC(=O)NC(=N)N)c3F)cn2)CC1` [Example 162, 2-Fluoro-3-[2-(4-{[2-(methylamino)ethoxy]imino}piperidin-1-yl)pyrimidin-5-yl]benzyl carbamimidoylcarbamate dihydrochloride], the inhibition at 0.03 µM is at least 50%.
Regarding `N=C(N)NC(=O)OCc1cccc(-c2cnc(N3CCC(=NOCCN)CC3)nc2)c1F` [Example 164, 3-(2-{4-[(2-Aminoethoxy)imino]piperidin-1-yl}pyrimidin-5-yl)-2-fluorobenzyl carbamimidoylcarbamate], the inhibition at 0.03 µM was at least 50%.
Consider `N=C(N)NC(=O)OCc1cccc(-c2cnc(N3CCC(=NOCc4cnn(C5CCCCO5)c4)CC3)nc2)c1F` (stereo not shown) [Example 172, 2-Fluoro-3-{2-[4-({[1-(tetrahydropyran-2-yl)-1H-pyrazol-4-yl]methoxy}imino)piperidin-1-yl]pyrimidin-5-yl}benzyl carbamimidoylcarbamate], for which the inhibition at 0.03 µM was at least 50%.
Consider `N=C(N)NC(=O)OCc1cccc(-c2cnc(N3CCC(=NOCCN4CCOC4=O)CC3)nc2)c1F` [Example 179, 2-Fluoro-3-[2-(4-{[2-(2-oxooxazolidin-3-yl)ethoxy]imino}piperidin-1-yl)pyrimidin-5-yl]benzyl carbamimidoylcarbamate], for which the inhibition at 0.03 µM is at least 50%.
Turning to `N=C(N)NC(=O)OCc1cccc(-c2cnc(N3CCC(=NOCCN4CCOCC4=O)CC3)nc2)c1F` [Example 180, 2-Fluoro-3-[2-(4-{[2-(3-oxomorpholino)ethoxy]imino}piperidin-1-yl)pyrimidin-5-yl]benzyl carbamimidoylcarbamate], the inhibition at 0.03 µM was at least 50%.
The same measure, in the same setting: for `CON=C1CN(c2ncc(-c3cccc(COC(=O)NC(=N)N)c3F)cn2)C1` [Example 184, 2-Fluoro-3-{2-[3-(methoxyimino)azetidin-1-yl]pyrimidin-5-yl}benzyl carbamimidoylcarbamate 1/2 L-tartrate] the value was at least 50%; for `CCON=C1CN(c2ncc(-c3cccc(COC(=O)NC(=N)N)c3F)cn2)C1` [Example 188, 3-{2-[3-(Ethoxyimino)azetidin-1-yl]pyrimidin-5-yl}-2-fluorobenzyl carbamimidoylcarbamate 1/2 L-tartrate], at least 50%.
Consider `O=C(O)C(O)C(O)C(=O)O.[2H]C([2H])([2H])ON=C1CN(c2ncc(-c3cccc(COC(=O)NC(=N)N)c3F)cn2)C1` [Example 192, 2-Fluoro-3-(2-{3-[(methoxy-d3)imino]azetidin-1-yl}pyrimidin-5-yl)benzyl carbamimidoylcarbamate 1/2 L-tartrate], for which the inhibition at 0.03 µM is at least 50%.
Consider `O=C(O)/C=C\C(=O)O.[2H]C([2H])([2H])ON=C1CN(c2ncc(-c3cccc(COC(=O)NC(=N)N)c3F)cn2)C1` [Example 194, 2-Fluoro-3-(2-{3-[(methoxy-d3)imino]azetidin-1-yl}pyrimidin-5-yl)benzyl carbamimidoylcarbamate maleate], for which the inhibition at 0.03 µM is at least 50%.
The same measure, in the same setting: the value for `O=C(O)CCC(=O)O.[2H]C([2H])([2H])ON=C1CN(c2ncc(-c3cccc(COC(=O)NC(=N)N)c3F)cn2)C1` [Example 195, 2-Fluoro-3-(2-{3-[(methoxy-d3)imino]azetidin-1-yl}pyrimidin-5-yl)benzyl carbamimidoylcarbamate 1/2 succinate] was at least 50%; that for `N=C(N)NC(=O)OCc1cccc(-c2cnc(N3CC(=NOCCF)C3)nc2)c1F` [Example 196, 2-Fluoro-3-(2-{3-[(2-fluoroethoxy)imino]azetidin-1-yl}pyrimidin-5-yl)benzyl carbamimidoylcarbamate 1/2 L-tartrate] was at least 50%; that for `O=C(O)C(O)C(O)C(=O)O.[2H]C([2H])([2H])ON=C1CN(c2ncc(-c3cccc(COC(=O)NC(=N)N)c3F)cc2F)C1` [Example 204, 2-Fluoro-3-(5-fluoro-6-{3-[(methoxy-d3)imino]azetidin-1-yl}pyridin-3-yl)benzyl carbamimidoylcarbamate 1/2 L-tartrate] was at least 50%.
For the compound `O=C(O)/C=C\C(=O)O.[2H]C([2H])([2H])ON=C1CN(c2ncc(-c3cccc(COC(=O)NC(=N)N)c3F)cc2F)C1` [Example 206, 2-Fluoro-3-(5-fluoro-6-{3-[(methoxy-d3)imino]azetidin-1-yl}pyridin-3-yl)benzyl carbamimidoylcarbamate maleate], the inhibition at 0.03 µM was at least 50%.
For the compound `O=C(O)CCC(=O)O.[2H]C([2H])([2H])ON=C1CN(c2ncc(-c3cccc(COC(=O)NC(=N)N)c3F)cc2F)C1` [Example 207, 2-Fluoro-3-(5-fluoro-6-{3-[(methoxy-d3)imino]azetidin-1-yl}pyridin-3-yl)benzyl carbamimidoylcarbamate 1/2 succinate], the inhibition at 0.03 µM was at least 50%.

The next assay has as its target T2, Rat Plasma VAP-1 (Rattus norvegicus, UniProt O08590).
T2 construct: from tissue; host or cells: plasma of SD male rats (7-12 weeks old) after oral dosing
T2 sequence (O08590 28-763 limits assumed): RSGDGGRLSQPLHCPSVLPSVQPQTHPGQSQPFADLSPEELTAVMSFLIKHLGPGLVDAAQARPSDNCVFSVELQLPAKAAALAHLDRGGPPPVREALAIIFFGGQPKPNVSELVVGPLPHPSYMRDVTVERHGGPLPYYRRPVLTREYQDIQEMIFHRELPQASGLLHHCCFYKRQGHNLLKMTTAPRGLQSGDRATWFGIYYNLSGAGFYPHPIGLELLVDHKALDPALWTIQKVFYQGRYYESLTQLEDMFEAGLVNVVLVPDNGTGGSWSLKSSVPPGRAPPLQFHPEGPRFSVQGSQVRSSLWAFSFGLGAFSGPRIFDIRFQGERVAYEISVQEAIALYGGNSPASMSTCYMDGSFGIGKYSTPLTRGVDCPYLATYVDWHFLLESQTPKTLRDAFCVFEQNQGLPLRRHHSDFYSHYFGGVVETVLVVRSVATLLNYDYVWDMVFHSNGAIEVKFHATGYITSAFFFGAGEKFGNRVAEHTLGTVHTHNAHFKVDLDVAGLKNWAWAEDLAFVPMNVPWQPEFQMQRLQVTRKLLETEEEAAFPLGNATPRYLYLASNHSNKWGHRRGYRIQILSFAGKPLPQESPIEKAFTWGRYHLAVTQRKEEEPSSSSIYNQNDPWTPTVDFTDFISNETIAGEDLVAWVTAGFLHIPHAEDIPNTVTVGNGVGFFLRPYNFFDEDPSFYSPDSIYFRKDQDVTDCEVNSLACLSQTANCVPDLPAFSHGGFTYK
Nature of the assay: (Ex vivo) rat plasma VAP-1 inhibition test after oral administration of the compound. Conditions: 3 hours after oral administration, SD male rats, read-out: inhibition ratio (plasma VAP-1, ex vivo). Format: in vivo. As for the experimental part: (Ex Vivo) Rat Plasma VAP-1 Inhibition Test after Oral Administration of the Compound
The compound was orally administered (0.3-10 mg/kg) to 7-12 week old SD male rats in the non-fasting state. Under anesthesia, the blood was collected in heparin tubes from the jugular vein before the administration and 3, 8 and 24 hours after the administration. The blood was centrifuged at 14000 rpm for 10 minutes to get plasma. The VAP-1 enzyme activity in the plasma was measured by radiochemical enzyme assay.
The radiochemical enzyme assay was conducted by modifying the method of P. H. Yu et al. (Diabetologia 40 1243 (1997)). ^14C-benzylamine (2.5 μM) was added to the obtained plasma, and was incubated at 37° C. for 3 hours. The reaction was terminated by the addition of 100 μL of 2 M citric acid solution to the reaction solution. The oxidative product was extracted using a toluene/ethyl acetate mixture and the radioactivity was measured with a liquid scintillation counter. The inhibition ratio of the compound was calculated using the following equation. Inhibition ratio={1−[Plasma VAP-1 activity after administration of the compound]/[Plasma VAP-1 activity before administration]}×100
As for `CON=C1CCN(c2ncc(-c3cccc(COC(=O)NC(=N)N)c3F)cn2)CC1` [Example 51, 2-Fluoro-3-{2-[4-(methoxyimino)piperidin-1-yl]pyrimidin-5-yl}benzyl carbamimidoylcarbamate], the inhibition in vivo at 0.3 mg/kg was at least 50%.
Still for that read-out and setting: the value for `CCON=C1CCN(c2ncc(-c3cccc(COC(=O)NC(=N)N)c3F)cn2)CC1` [Example 53, 3-{2-[4-(Ethoxyimino)piperidin-1-yl]pyrimidin-5-yl}-2-fluorobenzyl carbamimidoylcarbamate] was at least 50%.
